From PubChem BioAssay AID328 (DTP/NCI, 2004)
“And” between values parts separate entries of the source, which are not always exact repeats. Identical values can stand only once. Inconclusive results and toxic doses are left out. How the source made its calls: active means survival T/C of 150% or more; inactive means T/C below 125% in these data.

Test system: BDF1 mice, P388 leukemia ip, median survival T/C
Test: NCI In Vivo Anticancer Drug Screen. Data for tumor model P388 Leukemia (intraperitoneal) in B6D2F1 (BDF1) mice
Conditions: endpoint: median survival time, higher = longer survival
In short: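 Reported as T/C, where T is the survival measurement in dosed animals and C the same measurement in vehicle controls.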

[1] = dose: 3.6 mg/kg/injection, schedule: Q01DX009 (ip), vehicle: saline
[2] = dose: 100.0 mg/kg/injection, schedule: Q04DX003 (ip), vehicle: saline with Tween-80
[3] = dose: 100.0 mg/kg/injection, schedule: Q04DX003 (ip), vehicle: saline
[4] = dose: 200.0 mg/kg/injection, schedule: Q04DX003 (ip), vehicle: saline
[5] = dose: 50.0 mg/kg/injection, schedule: Q01DX009 (ip), vehicle: saline with Tween-80
[6] = dose: 100.0 mg/kg/injection, schedule: Q01DX009 (ip), vehicle: saline with Tween-80
[7] = dose: 200.0 mg/kg/injection, schedule: Q01DX009 (ip), vehicle: saline with Tween-80
[8] = dose: 400.0 mg/kg/injection, schedule: Q01DX009 (ip), vehicle: saline with Tween-80
[9] = dose: 25.0 mg/kg/injection, schedule: Q01DX009 (ip), vehicle: saline with Tween-80
[10] = dose: 50.0 mg/kg/injection, schedule: Q04DX003 (ip), vehicle: saline with Tween-80
[11] = dose: 12.5 mg/kg/injection, schedule: Q01DX009 (ip), vehicle: Klucel (hydroxypropylcellulose) (HPC)
[12] = dose: 200.0 mg/kg/injection, schedule: Q04DX003 (ip), vehicle: saline with Tween-80

Measured: T/C

O=NN(CCCl)C(=O)Nc1ccc(I)cc1
active: [1] 150 % of control | dose: 44.0 mg/kg/injection, schedule: Q04DX003 (ip), vehicle: saline sonified 150 % of control | dose: 66.0 mg/kg/injection, schedule: Q04DX003 (ip), vehicle: saline sonified 160 % of control | [2] 215 % of control
inactive: dose: 0.44 mg/kg/injection, schedule: Q01DX009 (ip), vehicle: saline with Tween-80 113 % of control | dose: 0.66 mg/kg/injection, schedule: Q01DX009 (ip), vehicle: saline with Tween-80 118 % of control | dose: 0.75 mg/kg/injection, schedule: Q04DX003 (ip), vehicle: saline 100 % of control | dose: 0.9 mg/kg/injection, schedule: Q01DX009 (ip), vehicle: saline 104 % of control | dose: 1.5 mg/kg/injection, schedule: Q04DX003 (ip), vehicle: saline 109 % of control | dose: 3.0 mg/kg/injection, schedule: Q04DX003 (ip), vehicle: saline 109 % of control

CCCCCCCCCCCCCCCC[N+]1(C)CCN(SN2CC[N+](C)(CCCCCCCCCCCCCCCC)CC2)CC1
inactive: dose: 50.0 mg/kg/injection, schedule: Q01DX009 (ip), vehicle: saline 100 % of control | dose: 100.0 mg/kg/injection, schedule: Q01DX009 (ip), vehicle: saline 103 % of control | [3] 104 % of control | [4] 104 % of control

CC(/C=N/N=C(N)N)=N\NC(N)=S
inactive: [5] 96 % of control | [6] 116 % of control | [7] 107 % of control

O=[N+]([O-])c1ccc(Sc2ccc(Cl)cc2)c2c1no[n+]2[O-]
inactive: dose: 15.0 mg/kg/injection, schedule: Q01DX009 (ip), vehicle: saline with Tween-80 112 % of control | dose: 30.0 mg/kg/injection, schedule: Q01DX009 (ip), vehicle: saline with Tween-80 112 % of control | dose: 60.0 mg/kg/injection, schedule: Q01DX009 (ip), vehicle: saline with Tween-80 112 % of control

CC1(C)OC(COS(C)(=O)=O)C(COS(C)(=O)=O)O1 (configuration not stated)
inactive: dose: 100.0 mg/kg/injection, schedule: Q04DX002 (ip), vehicle: saline with Tween-80 101 % of control | dose: 200.0 mg/kg/injection, schedule: Q04DX002 (ip), vehicle: saline with Tween-80 104 % of control | dose: 400.0 mg/kg/injection, schedule: Q04DX002 (ip), vehicle: saline with Tween-80 104 % of control

OCC1(CO)COC(c2ccccc2)OC1
inactive: dose: 25.0 mg/kg/injection, schedule: Q04DX003 (ip), vehicle: Klucel (hydroxypropylcellulose) (HPC) 95 % of control | dose: 50.0 mg/kg/injection, schedule: Q04DX003 (ip), vehicle: Klucel (hydroxypropylcellulose) (HPC) 100 % of control | dose: 100.0 mg/kg/injection, schedule: Q04DX003 (ip), vehicle: Klucel (hydroxypropylcellulose) (HPC) 100 % of control

Cc1cc(C)c(N)c(Br)c1C
inactive: [6] 100 % of control | [7] 87 % of control

Nc1cc(N)c([N+](=O)[O-])cc1[N+](=O)[O-]
inactive: [6] 90 % of control | [7] 100 % of control | [8] 104 % of control

CN(C)CCOc1cccc(OCCN(C)C)n1
inactive: [9] 100 % of control | dose: 25.0 mg/kg/injection, schedule: Q04DX003 (ip), vehicle: saline with Tween-80 87 % of control | [5] 95 % of control | [10] 91 % of control

CCCCCCCCCCCCN1CCCC(O)C1 (configuration not stated)
inactive: [9] 104 % of control | [5] 100 % of control | [10] 120 % of control | [2] 90 % of control

CNC(C)COc1ccccc1 (configuration not stated)
inactive: dose: 25.0 mg/kg/injection, schedule: Q04DX003 (ip), vehicle: saline 104 % of control | dose: 50.0 mg/kg/injection, schedule: Q04DX003 (ip), vehicle: saline 100 % of control | [3] 90 % of control

O=C1C(Br)=CC(=NCl)C=C1Br
inactive: dose: 3.13 mg/kg/injection, schedule: Q01DX009 (ip), vehicle: Klucel (hydroxypropylcellulose) (HPC) 118 % of control | dose: 6.25 mg/kg/injection, schedule: Q01DX009 (ip), vehicle: Klucel (hydroxypropylcellulose) (HPC) 112 % of control | [11] 120 % of control | dose: 25.0 mg/kg/injection, schedule: Q01DX009 (ip), vehicle: Klucel (hydroxypropylcellulose) (HPC) 103 % of control

CCOC(=O)CS(=O)(=O)c1ccc(NC(C)=O)cc1
inactive: dose: 50.0 mg/kg/injection, schedule: Q01DX009 (ip), vehicle: Klucel (hydroxypropylcellulose) (HPC) 104 % of control | dose: 100.0 mg/kg/injection, schedule: Q01DX009 (ip), vehicle: Klucel (hydroxypropylcellulose) (HPC) 91 % of control and 120 % of control | dose: 200.0 mg/kg/injection, schedule: Q01DX009 (ip), vehicle: Klucel (hydroxypropylcellulose) (HPC) 96 % of control and 115 % of control | dose: 400.0 mg/kg/injection, schedule: Q01DX009 (ip), vehicle: Klucel (hydroxypropylcellulose) (HPC) 105 % of control

OCC1(O)CCC1
inactive: dose: 75.0 mg/kg/injection, schedule: Q01DX009 (ip), vehicle: saline 95 % of control | [3] 96 % of control | dose: 150.0 mg/kg/injection, schedule: Q01DX009 (ip), vehicle: saline 104 % of control | [4] 103 % of control | dose: 300.0 mg/kg/injection, schedule: Q01DX009 (ip), vehicle: saline 109 % of control | dose: 400.0 mg/kg/injection, schedule: Q04DX003 (ip), vehicle: saline 100 % of control

CCCCCCCCCCCCCCCC[N+]1([O-])CCCC1
inactive: dose: 12.5 mg/kg/injection, schedule: Q01DX009 (ip), vehicle: saline with Tween-80 110 % of control | [9] 99 % of control | [5] 108 % of control

CCC(C)Sc1nc(N)nc2c1ncn2C1OC(CO)C(O)C1O (configuration not stated)
inactive: [2] 91 % of control and 109 % of control | [12] 108 % of control and 118 % of control

CC(C)COP(=O)(O)OCC(C)C.[Al]
inactive: [5] 92 % of control | [6] 94 % of control | [7] 94 % of control

C/C(CC1(O)C(=O)Nc2ccccc21)=N\O (configuration not stated)
inactive: [6] 100 % of control | [7] 95 % of control | [8] 104 % of control

OC1(O)CCN(Cc2ccccc2)CC1
inactive: [5] 122 % of control | [10] 95 % of control | [6] 104 % of control | [2] 100 % of control | [7] 95 % of control | [12] 105 % of control

COc1ccc(C(N)C(=O)O)cc1 (configuration not stated)
inactive: dose: 100.0 mg/kg/injection, schedule: Q01DX001 (ip), vehicle: Klucel (hydroxypropylcellulose) (HPC) 100 % of control | dose: 200.0 mg/kg/injection, schedule: Q01DX001 (ip), vehicle: Klucel (hydroxypropylcellulose) (HPC) 109 % of control | dose: 400.0 mg/kg/injection, schedule: Q01DX001 (ip), vehicle: Klucel (hydroxypropylcellulose) (HPC) 109 % of control

N=C(N)c1ccc(/C=C/c2ccc(C(=N)N)cc2)cc1
inactive: [11] 118 % of control | dose: 16.5 mg/kg/injection, schedule: Q01DX009 (ip), vehicle: Klucel (hydroxypropylcellulose) (HPC) 116 % of control and 118 % of control
active: dose: 37.5 mg/kg/injection, schedule: Q01DX009 (ip), vehicle: Klucel (hydroxypropylcellulose) (HPC) 150 % of control

CCCCCCCC[N+](CC)(CC)CCOC(=O)C(C1CCCC1)C1CCCC1
inactive: dose: 0.9 mg/kg/injection, schedule: Q04DX003 (ip), vehicle: saline 90 % of control | dose: 1.32 mg/kg/injection, schedule: Q01DX001 (ip), vehicle: saline 87 % of control | dose: 1.8 mg/kg/injection, schedule: Q04DX003 (ip), vehicle: saline 109 % of control | dose: 2.65 mg/kg/injection, schedule: Q01DX001 (ip), vehicle: saline 100 % of control | [1] 110 % of control | dose: 3.6 mg/kg/injection, schedule: Q04DX003 (ip), vehicle: saline 109 % of control | dose: 5.3 mg/kg/injection, schedule: Q01DX001 (ip), vehicle: saline 91 % of control | dose: 5.3 mg/kg/injection, schedule: Q04DX003 (ip), vehicle: saline 90 % of control
